These results are taken from patent publication US8637672B2 (Deciphera Pharmaceuticals, LLC, priority 2010, dated 2014).

For experiment [1], the target named is T1, RON kinase (Homo sapiens, UniProt Q04912).
T1 construct: GST tagged recombinant human RON, amino acids 983-1400; GST; host or cells: insect cells
T1 sequence (Q04912 983-1400): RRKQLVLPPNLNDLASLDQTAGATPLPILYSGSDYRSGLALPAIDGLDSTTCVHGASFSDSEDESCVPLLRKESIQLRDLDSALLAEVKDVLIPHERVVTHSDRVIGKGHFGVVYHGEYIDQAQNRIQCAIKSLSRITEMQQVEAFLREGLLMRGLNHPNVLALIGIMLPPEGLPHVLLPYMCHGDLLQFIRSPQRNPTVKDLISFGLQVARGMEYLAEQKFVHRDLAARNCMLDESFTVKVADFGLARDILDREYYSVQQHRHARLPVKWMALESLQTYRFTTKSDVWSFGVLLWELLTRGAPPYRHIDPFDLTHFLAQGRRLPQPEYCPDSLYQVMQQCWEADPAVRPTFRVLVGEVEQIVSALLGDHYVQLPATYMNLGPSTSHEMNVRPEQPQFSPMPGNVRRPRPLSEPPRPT
As to the kind of experiment: RON Kinase Assay. In kind it is biochemical. The settings on record: for Fold Selectivity RON/MET: ratio RON IC50 / MET IC50; for IC50: methods of the Biological Data section. As for the experimental part:
Activity of RON kinase was determined by a radioactive filtration binding assay where incorporation of ^33P from ^33P-γ-ATP to the substrate was measured. In this assay, detection of ^33P was indicative of RON phosphorylation activity which was directly proportional to the amount of phosphorylated peptide substrate ([…], SEQ ID NO: 4). Initially, the reaction mixture contained: 400 nM RON, 20 mM HEPES, pH 7.5, 10 mM MgCl2, 2 mM MnCl2, 1 mM EGTA, 0.02% Brij 35, 0.02 mg/mL BSA, 0.1 mM Na3VO4, and 2 mM DTT. The reaction mixture was incubated with compound at room temperature for 30 minutes. To initiate the reaction, an equal volume of 20 μM ATP and 0.4 mg/mL peptide substrate were added and then incubated at room temperature for 2 hours. The final assay conditions were: 200 nM RON, 10 μM ATP, 0.2 mg/mL substrate 20 mM HEPES, pH 7.5, 10 mM MgCl2, 1 mM EGTA, 0.02% Brij 35, 0.02 mg/mL BSA, 0.1 mM Na3VO4, 2 mM DTT, and 1% DMSO. IC50 values were calculated from a series of % Activity values determined at a range of inhibitor concentrations using software routines as implemented in the GraphPad Prism software package.
GST tagged recombinant human RON, amino acids 983-1400. Expressed in insect cells.

For experiment [2], the target named is VEGFR-2 (KDR kinase) (Homo sapiens, UniProt P35968, DEL940-989/E990V). Description: KDR Kinase Assay (VEGFR-2). In kind it is biochemical. The settings on record: for Fold Selectivity VEGFR-2/MET: ratio VEGFR-2 IC50 / MET IC50; for IC50: methods of the Biological Data section. As for the experimental part:
The activity of KDR kinase was determined by following the production of ADP from the kinase reaction through coupling with the pyruvate kinase/lactate dehydrogenase system (e.g., Schindler et al. Science 2000, 289, pp. 1938-1942). In this assay, the oxidation of NADH (thus the decrease at A340 nm) was continuously monitored spectrophotometrically. The reaction mixture (100 μl) contained KDR (Seq ID No. 3, 1.5 nM to 7.1 nM, nominal concentration), polyE4Y (1 mg/mL), pyruvate kinase (3.5 units), lactate dehydrogenase (5.5 units), phosphoenolpyruvate (1 mM), and NADH (0.28 mM) in 60 mM […] buffer containing 0.13% octyl-glucoside, 13 mM MgCl2, 6.8 mM DTT, and 3.5% DMSO at pH 7.5. The reaction was initiated by adding ATP (0.2 mM, final concentration). The absorption at 340 nm was continuously monitored for 3 h at 30° C. on a Polarstar Optima plate reader (BMG) or instrument of similar capacity. The reaction rate was calculated using the 1 h to 2 h time frame. Percent inhibition was obtained by comparison of reaction rate with that of a control (i.e., with no test compound). IC50 values were calculated from a series of percent inhibition values determined at a range of inhibitor concentrations using software routines as implemented in the GraphPad Prism software package.
KDR kinase assay K2 is the same as for assay K1 except that (1) a nominal concentration of 2.1 nM of enzyme was employed (2) the reaction was pre-incubated at 30° C. for 2 h prior to initiation with ATP and (3) 1.0 mM ATP (final concentration) was used to initiate the reaction.
KDR kinase assay K3 is the same as for assay K1 except that (1) a nominal concentration of 1.1 nM of enzyme was employed, (2) the buffer components per 100 μl reaction mixture were as follows: 75 mM Tris buffer containing 0.066% octyl-glucoside, 17 mM MgCl2, and 1% DMSO at pH 7.5, (3) the final concentration of DTT was 0.66 mM, (4) the reaction was pre-incubated at 30° C. for 1 h prior to initiation with ATP, and (5) 1.0 mM ATP (final concentration) was used to initiate the reaction.

VEGFR-2 (KDR kinase), sequence (P35968 with tags, fused parts or gaps DEL940-989/E990V): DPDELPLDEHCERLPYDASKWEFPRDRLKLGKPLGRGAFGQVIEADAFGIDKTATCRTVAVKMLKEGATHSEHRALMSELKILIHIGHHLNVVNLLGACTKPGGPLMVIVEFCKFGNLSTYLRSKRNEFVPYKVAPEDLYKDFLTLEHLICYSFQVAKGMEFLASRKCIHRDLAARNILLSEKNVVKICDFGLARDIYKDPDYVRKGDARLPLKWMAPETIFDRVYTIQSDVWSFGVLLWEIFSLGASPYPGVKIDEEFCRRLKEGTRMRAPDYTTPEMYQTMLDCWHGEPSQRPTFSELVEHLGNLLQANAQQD

Turning to `O=C(Nc1cc(Oc2cc(F)c(NC(=O)C3(C(=O)Nc4ccc(F)cc4)CC3)cc2F)ccn1)N1CC(CO)C1` [Compound H], in experiment [1], the “Fold Selectivity RON/MET” value is listed as 0.75. Moreover, in experiment [2], the “Fold Selectivity VEGFR-2/MET” value is given as 2.5.

Take `CN1CCN(C2CCN(C(=O)Nc3cc(Oc4cc(F)c(NC(=O)C5(C(=O)Nc6ccc(F)cc6)CC5)cc4F)ccn3)CC2)CC1` [Compound G]: the “Fold Selectivity RON/MET” value in experiment [1] was determined as 0.04. The “Fold Selectivity VEGFR-2/MET” value in experiment [2] is listed as 2.13.

For `CC(=O)Nc1cc(Oc2cc(F)c(NC(=O)C3(C(=O)Nc4ccc(F)cc4)CC3)cc2F)ccn1` [Compound D, N-(4-(2-acetamidopyridin-4-yloxy)-2,5-difluorophenyl)-N′-(4-fluorophenyl)cyclopropane-1,1-dicarboxamide], in experiment [1], the IC50 was at least 5000 nM and the “Fold Selectivity RON/MET” value is reported as >1,250. In addition, in experiment [2], the half-maximal inhibitory concentration (IC50) is 52 nM and the “Fold Selectivity VEGFR-2/MET” value stood at 13.

`CC(=O)Nc1cc(Oc2ccc(NC(=O)C3(C(=O)Nc4ccc(F)cc4)CC3)c(F)c2)ccn1` [Compound E, N-(4-(2-acetamidopyridin-4-yloxy)-2-fluorophenyl)-N′-(4-fluorophenyl)cyclopropane-1,1-dicarboxamide]: in experiment [1], the IC50 was 100 nM and the “Fold Selectivity RON/MET” value is given as 3.85. In experiment [2], the IC50 came to 122 nM and the “Fold Selectivity VEGFR-2/MET” value turned out to be 4.69.

One may read the IC50 as the concentration that inhibits the measured activity by half. Lower therefore signals inhibition by little substance.
